According to the NIST ThermoML archive (doi:10.1021/je060271a):
“And” between values parts separate entries of the source, which are not always exact repeats. Equal values may be shown once. ± gives the expanded uncertainty stated by the source.

Details: 343.15 K, Liquid, Vibrating tube method

CCCCCCC(=O)OCC(COC(=O)CCCCCC)(COC(=O)CCCCCC)COC(=O)CCCCCC [pentaerythritol tetraheptanoate]
Details | mass density
13341 kPa | 950.4 ± 1.2 kg/m3
13372 kPa | 950.4 ± 1.2 kg/m3
13408 kPa | 950.3 ± 1.2 kg/m3
13431 kPa | 950.4 ± 1.2 kg/m3
13453 kPa | 950.5 ± 1.2 kg/m3
13478 kPa | 950.4 ± 1.2 kg/m3
13499 kPa | 950.4 ± 1.2 kg/m3
13521 kPa | 950.4 ± 1.2 kg/m3
13546 kPa | 950.5 ± 1.2 kg/m3
13567 kPa | 950.5 ± 1.2 kg/m3
13589 kPa | 950.5 ± 1.2 kg/m3
13615 kPa | 950.5 ± 1.2 kg/m3
13637 kPa | 950.5 ± 1.2 kg/m3
13658 kPa | 950.6 ± 1.2 kg/m3
13661 kPa | 950.5 ± 1.2 kg/m3
13675 kPa | 950.6 ± 1.2 kg/m3
13680 kPa | 950.6 ± 1.2 kg/m3
13707 kPa | 950.6 ± 1.2 kg/m3
13729 kPa | 950.6 ± 1.2 kg/m3
13751 kPa | 950.7 ± 1.2 kg/m3
13779 kPa | 950.6 ± 1.2 kg/m3
13801 kPa | 950.7 ± 1.2 kg/m3
13824 kPa | 950.7 ± 1.2 kg/m3
13831 kPa | 950.7 ± 1.2 kg/m3
13845 kPa | 950.8 ± 1.2 kg/m3
13850 kPa | 950.6 ± 1.2 kg/m3
13858 kPa | 950.8 ± 1.2 kg/m3
13872 kPa | 950.8 ± 1.2 kg/m3
13895 kPa | 950.8 ± 1.2 kg/m3
13922 kPa | 950.8 ± 1.2 kg/m3
13944 kPa | 950.7 ± 1.2 kg/m3
13968 kPa | 950.8 ± 1.2 kg/m3
13995 kPa | 950.8 ± 1.2 kg/m3
14018 kPa | 950.9 ± 1.2 kg/m3
14041 kPa | 950.8 ± 1.2 kg/m3
14069 kPa | 950.8 ± 1.2 kg/m3
14093 kPa | 950.9 ± 1.2 kg/m3
14116 kPa | 950.9 ± 1.2 kg/m3
14140 kPa | 950.9 ± 1.2 kg/m3
14168 kPa | 950.9 ± 1.2 kg/m3
14191 kPa | 950.9 ± 1.2 kg/m3
14215 kPa | 951 ± 1.2 kg/m3
14244 kPa | 951 ± 1.2 kg/m3
14267 kPa | 950.8 ± 1.2 kg/m3
14296 kPa | 951 ± 1.2 kg/m3
14320 kPa | 951.1 ± 1.2 kg/m3
14344 kPa | 951.1 ± 1.2 kg/m3
14368 kPa | 951 ± 1.2 kg/m3
14397 kPa | 951.1 ± 1.2 kg/m3
14398 kPa | 951.2 ± 1.2 kg/m3
14410 kPa | 951.1 ± 1.2 kg/m3
14423 kPa | 951 ± 1.2 kg/m3
14427 kPa | 951.1 ± 1.2 kg/m3
14440 kPa | 951.1 ± 1.2 kg/m3
14447 kPa | 951.2 ± 1.2 kg/m3
14454 kPa | 951 ± 1.2 kg/m3
14468 kPa | 951.1 ± 1.2 kg/m3
14477 kPa | 951.2 ± 1.2 kg/m3
14482 kPa | 951.2 ± 1.2 kg/m3
14495 kPa | 951 ± 1.2 kg/m3
14502 kPa | 951.1 ± 1.2 kg/m3
14512 kPa | 951.2 ± 1.2 kg/m3
14526 kPa | 951.1 ± 1.2 kg/m3
14556 kPa | 951 ± 1.2 kg/m3
14581 kPa | 951.2 ± 1.2 kg/m3
14606 kPa | 951.1 ± 1.2 kg/m3
14632 kPa | 951.3 ± 1.2 kg/m3
14662 kPa | 951.1 ± 1.2 kg/m3
14688 kPa | 951.2 ± 1.2 kg/m3
14714 kPa | 951.3 ± 1.2 kg/m3
14744 kPa | 951.3 ± 1.2 kg/m3
14771 kPa | 951.3 ± 1.2 kg/m3
14797 kPa | 951.4 ± 1.2 kg/m3
14823 kPa | 951.4 ± 1.2 kg/m3
14855 kPa | 951.2 ± 1.2 kg/m3
14880 kPa | 951.4 ± 1.2 kg/m3
14907 kPa | 951.3 ± 1.2 kg/m3
14939 kPa | 951.4 ± 1.2 kg/m3
14965 kPa | 951.4 ± 1.2 kg/m3
14992 kPa | 951.5 ± 1.2 kg/m3
15024 kPa | 951.5 ± 1.2 kg/m3
15051 kPa | 951.6 ± 1.2 kg/m3
15078 kPa | 951.7 ± 1.2 kg/m3
15112 kPa | 951.6 ± 1.2 kg/m3
15135 kPa | 951.6 ± 1.2 kg/m3
15168 kPa | 951.5 ± 1.2 kg/m3
15196 kPa | 951.6 ± 1.2 kg/m3
15230 kPa | 951.7 ± 1.2 kg/m3
15257 kPa | 951.6 ± 1.2 kg/m3
15284 kPa | 951.8 ± 1.2 kg/m3
15310 kPa | 951.7 ± 1.2 kg/m3
15337 kPa | 951.7 ± 1.2 kg/m3
15354 kPa | 951.7 ± 1.2 kg/m3
15378 kPa | 951.7 ± 1.2 kg/m3
15402 kPa | 951.8 ± 1.2 kg/m3
15423 kPa | 951.8 ± 1.2 kg/m3
15449 kPa | 951.7 ± 1.2 kg/m3
15466 kPa | 951.8 ± 1.2 kg/m3
15491 kPa | 951.8 ± 1.2 kg/m3
15511 kPa | 951.8 ± 1.2 kg/m3
15531 kPa | 951.9 ± 1.2 kg/m3
15556 kPa | 951.9 ± 1.2 kg/m3
15577 kPa | 952 ± 1.2 kg/m3
15598 kPa | 951.9 ± 1.2 kg/m3
15623 kPa | 952.1 ± 1.2 kg/m3
15643 kPa | 951.9 ± 1.2 kg/m3
15664 kPa | 951.9 ± 1.2 kg/m3
15689 kPa | 951.9 ± 1.2 kg/m3
15710 kPa | 951.9 ± 1.2 kg/m3
15732 kPa | 951.9 ± 1.2 kg/m3
15753 kPa | 952.1 ± 1.2 kg/m3
15778 kPa | 952.1 ± 1.2 kg/m3
15800 kPa | 952 ± 1.2 kg/m3
15817 kPa | 952.1 ± 1.2 kg/m3
15847 kPa | 952.1 ± 1.2 kg/m3
15868 kPa | 952.2 ± 1.2 kg/m3
15890 kPa | 952.1 ± 1.2 kg/m3
15916 kPa | 952.2 ± 1.2 kg/m3
15938 kPa | 952.1 ± 1.2 kg/m3
15964 kPa | 952.1 ± 1.2 kg/m3
15985 kPa | 952.1 ± 1.2 kg/m3
16008 kPa | 952.2 ± 1.2 kg/m3
16034 kPa | 952.2 ± 1.2 kg/m3
16056 kPa | 952.2 ± 1.2 kg/m3
16079 kPa | 952.2 ± 1.2 kg/m3
16101 kPa | 952.2 ± 1.2 kg/m3
16128 kPa | 952.2 ± 1.2 kg/m3
16151 kPa | 952.3 ± 1.2 kg/m3
16174 kPa | 952.3 ± 1.2 kg/m3
16200 kPa | 952.4 ± 1.2 kg/m3
16223 kPa | 952.3 ± 1.2 kg/m3
16246 kPa | 952.4 ± 1.2 kg/m3
16269 kPa | 952.4 ± 1.2 kg/m3
16297 kPa | 952.4 ± 1.2 kg/m3
16320 kPa | 952.5 ± 1.2 kg/m3
16344 kPa | 952.5 ± 1.2 kg/m3
16367 kPa | 952.5 ± 1.2 kg/m3
16395 kPa | 952.6 ± 1.2 kg/m3
16418 kPa | 952.5 ± 1.2 kg/m3
16446 kPa | 952.4 ± 1.2 kg/m3
16469 kPa | 952.5 ± 1.2 kg/m3
16493 kPa | 952.7 ± 1.2 kg/m3
16516 kPa | 952.5 ± 1.2 kg/m3
16545 kPa | 952.7 ± 1.2 kg/m3
16569 kPa | 952.6 ± 1.2 kg/m3
16588 kPa | 952.6 ± 1.2 kg/m3
16616 kPa | 952.6 ± 1.2 kg/m3
16640 kPa | 952.6 ± 1.2 kg/m3
16669 kPa | 952.7 ± 1.2 kg/m3
16698 kPa | 952.5 ± 1.2 kg/m3
16723 kPa | 952.7 ± 1.2 kg/m3
16747 kPa | 952.8 ± 1.2 kg/m3
16771 kPa | 952.8 ± 1.2 kg/m3
16800 kPa | 952.8 ± 1.2 kg/m3
16825 kPa | 952.8 ± 1.2 kg/m3
16854 kPa | 952.8 ± 1.2 kg/m3
16879 kPa | 952.8 ± 1.2 kg/m3
16882 kPa | 952.8 ± 1.2 kg/m3
16904 kPa | 953 ± 1.2 kg/m3
16933 kPa | 952.8 ± 1.2 kg/m3
16958 kPa | 952.8 ± 1.2 kg/m3
16983 kPa | 952.9 ± 1.2 kg/m3
17013 kPa | 952.9 ± 1.2 kg/m3
17038 kPa | 952.9 ± 1.2 kg/m3
17064 kPa | 953.1 ± 1.2 kg/m3
17089 kPa | 952.9 ± 1.2 kg/m3
17120 kPa | 952.9 ± 1.2 kg/m3
17145 kPa | 953 ± 1.2 kg/m3
17176 kPa | 952.9 ± 1.2 kg/m3
17202 kPa | 952.9 ± 1.2 kg/m3
17228 kPa | 952.9 ± 1.2 kg/m3
17254 kPa | 953.1 ± 1.2 kg/m3
17285 kPa | 953 ± 1.2 kg/m3
17312 kPa | 953.1 ± 1.2 kg/m3
17340 kPa | 953 ± 1.2 kg/m3
17368 kPa | 953 ± 1.2 kg/m3
17394 kPa | 953.2 ± 1.2 kg/m3
17426 kPa | 953.1 ± 1.2 kg/m3
17453 kPa | 953.1 ± 1.2 kg/m3
17463 kPa | 953.2 ± 1.2 kg/m3
17480 kPa | 953.2 ± 1.2 kg/m3
17483 kPa | 953.2 ± 1.2 kg/m3
17507 kPa | 953.3 ± 1.2 kg/m3
17512 kPa | 953.2 ± 1.2 kg/m3
17528 kPa | 953.2 ± 1.2 kg/m3
17538 kPa | 953.2 ± 1.2 kg/m3
17548 kPa | 953.1 ± 1.2 kg/m3
17566 kPa | 953.2 ± 1.2 kg/m3
17572 kPa | 953.3 ± 1.2 kg/m3
17598 kPa | 953.3 ± 1.2 kg/m3
17625 kPa | 953.3 ± 1.2 kg/m3
17652 kPa | 953.3 ± 1.2 kg/m3
17686 kPa | 953.1 ± 1.2 kg/m3
17709 kPa | 953.4 ± 1.2 kg/m3
17742 kPa | 953.3 ± 1.2 kg/m3
17770 kPa | 953.4 ± 1.2 kg/m3
17798 kPa | 953.4 ± 1.2 kg/m3
17831 kPa | 953.5 ± 1.2 kg/m3
17859 kPa | 953.5 ± 1.2 kg/m3
17882 kPa | 953.5 ± 1.2 kg/m3
17887 kPa | 953.4 ± 1.2 kg/m3
17921 kPa | 953.4 ± 1.2 kg/m3
17949 kPa | 953.5 ± 1.2 kg/m3 and 953.6 ± 1.2 kg/m3
17971 kPa | 953.5 ± 1.2 kg/m3
17978 kPa | 953.5 ± 1.2 kg/m3
17993 kPa | 953.6 ± 1.2 kg/m3
18012 kPa | 953.5 ± 1.2 kg/m3
18019 kPa | 953.6 ± 1.2 kg/m3
18040 kPa | 953.4 ± 1.2 kg/m3
18075 kPa | 953.5 ± 1.2 kg/m3
18104 kPa | 953.5 ± 1.2 kg/m3
18133 kPa | 953.6 ± 1.2 kg/m3
18161 kPa | 953.6 ± 1.2 kg/m3
18196 kPa | 953.5 ± 1.2 kg/m3
18200 kPa | 953.7 ± 1.2 kg/m3
18226 kPa | 953.7 ± 1.2 kg/m3
18227 kPa | 953.7 ± 1.2 kg/m3
18250 kPa | 953.7 ± 1.2 kg/m3
18255 kPa | 953.7 ± 1.2 kg/m3
18275 kPa | 953.8 ± 1.2 kg/m3
18290 kPa | 953.7 ± 1.2 kg/m3
18320 kPa | 953.8 ± 1.2 kg/m3
18350 kPa | 953.7 ± 1.2 kg/m3
18386 kPa | 953.8 ± 1.2 kg/m3
